Measurements as given in PubChem BioAssay AID2060498 (Molecular Pharmacology Branch, DTP, NCI, 2025).
pIC50: −log10 of the molar value. Several values for one entry are separate records, joined by “and”; a condition that tells them apart may be missing. Identical values can stand only once.

Test system: 171881-019-R-J1-PDC tumor spheroids, viability
Test: Anticancer human tumor 171881-019-R-J1-PDC patient-derived invasive breast carcinoma cell line growth inhibition [GQUAD]
Conditions: spheroids with HUVEC and MSC; for viability, T/C: stronger effect = lower value; active = viability on the fitted dose curve at most 10% of control; inactive = the rest
Excerpt: DNA G-quadruplex Stabilizer Agents in Combinations in Complex Spheroids
A high-throughput screen of multi-cell type tumor spheroids was designed to identify active combinations of DNA G-quadruplex stabilizer agents and targeted small molecules. Complex spheroids include a stromal component modeled by human endothelial cells (HUVEC) and fibroblasts modeled by human mesenchymal stem cells (MSCs). The concentration ranges selected for each drug and investigational agent were based upon clinically achievable concentrations if the clinical Cmax of the agent was known.
Compounds. The drugs and investigational agents: pidnarulex (CX-5461; NSC782164), APTO-253 (NSC789042), BRACO-19 (NSC847499), peposertib (NSC802822), ceralasertib (NSC780249), elimusertib (NSC800525), camonsertib (NSC841442), AZD-1390 (NSC803789), olaparib (NSC753686), talazoparib (NSC767125), ART-558 (NSC835418), sotorasib (NSC818433), MRTX-1133 (NSC836407), SN-38 (NSC673596), topotecan (NSC609699), etoposide (NSC141540), doxorubicin (NSC123127), gemcitabine (NSC613327), 5-fluorouracil (NSC19893), paclitaxel (NSC125973), vemurafenib (NSC761431), panobinostat (NSC761190), R-306465 (JNJ-16241199; NSC773264), adavosertib (NSC754352), TP-3654 (NSC805149), carboplatin (NSC241240), KSQ-4279 (NSC840948), and staurosporine (NSC755774) were obtained from the National Cancer Institute (NCI) Developmental Therapeutics Program Chemical Repository (34). The FDA-approved anticancer drug set is available from the NCI Developmental Therapeutics Program. […] The stock solutions were prepared in dimethyl sulfoxide (DMSO, Sigma-Aldrich, St. Louis, MO, cat. D2650) at 800-fold the tested concentration and stored at -70 degrees C prior to their use. All drugs and investigational agents were tested over a range starting from a high concentration at or near the clinical Cmax and decreasing in half-log increments. If the clinical Cmax for an agent had not been determined, the highest concentration tested was 10 microM.
2.3 Cell Culture. All cells were maintained in an incubator at 37 degrees C and 5% CO2 with 95% humidity. The PDC lines were cultured according to standard operating procedures established by the NCI PDMR. All PDCs were thawed and cultured in Matrigel-coated flasks prepared with a working solution of 1X Ham's F-12 nutrient mix, without supplementation (Invitrogen, cat. 11765054), 100 U/mL penicillin-streptomycin (Invitrogen, cat. 15140122), and 2.5% Matrigel (Corning Inc., cat. 354248) for the first three passages. The 857933-349-R-J2-PDC line was cultured in 6C/Colon 1B media, which includes advanced DMEM/F-12 (Thermo Fisher Scientific, cat. 12634028), 10 mM HEPES (Thermo Fisher Scientific, cat. 15630080), 1X GlutaMAX supplement (Thermo Fisher Scientific, cat. 35050061), 0.1 mg/mL primocin (InvivoGen, cat. ant-pm-2), 10% defined fetal bovine serum, heat inactivated (HyClone Laboratories Inc., cat. SH30070.03HI), 50% L-WRN conditioned media (ATCC, cat. CRL-3276), 1.25 mM N-Acetyl-L-cysteine (Sigma-Aldrich, cat. A9165), 10 mM nicotinamide (Sigma-Aldrich, cat. N0636), 1X B-27 supplement (Thermo Fisher Scientific, cat. 17504044), 1X N-2 supplement (Thermo Fisher Scientific, cat. 17502048), 10 microM Y-27632 dihydrochloride (Tocris Bioscience, cat. 1254), and 50 ng/mL human EGF recombinant protein (Thermo Fisher Scientific, cat. PHG0311). The 485176-168-R4-J1-PDC line was cultured in Panc media, which includes all 6C/Colon 1B media components plus 100 ng/mL human FGF-10 (Thermo Fisher Scientific, cat. 100-26), 500 nM SB-431542 (Selleckchem, cat. S1067), and gastrin (Tocris, cat. 3006).
[…]
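Note: spheroids exposed to compounds for 7 days.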

CC[C@@]1(O)C(=O)OCc2c1cc1n(c2=O)Cc2cc3c(CN(C)C)c(O)ccc3nc2-1
7.02 and 6.58 and 7.08: pIC50 (curve of compound)
inactive: viability, T/C (compound 0.000999 µM) 84.9% and 109% and 105% | viability, T/C (compound 0.00316 µM) 89.6% and 94.4% and 100% | viability, T/C (compound 0.00999 µM) 96.2% and 103% and 85.5% | viability, T/C (compound 0.0316 µM) 88.4% and 94.7% and 87.2% | viability, T/C (compound 0.0999 µM) 48.2% and 59.4% and 42.4% | viability, T/C (compound 0.316 µM) 35.1% (2×) and 48.3%

CC(C)n1c(=O)n(C)c2cnc3cc(F)c(-c4ccc(OCCCN5CCCCC5)nc4)cc3c21
5.44 and 5.63 and 5.49: pIC50 (curve of compound)
inactive: viability, T/C (compound 0.0316 µM) 93.2% and 98.1% and 85.8% | viability, T/C (compound 0.1 µM) 95.7% and 88.2% and 81.6% | viability, T/C (compound 0.316 µM) 96.2% and 94.4% and 102% | viability, T/C (compound 1 µM) 74.8% and 82.3% and 78.2% | viability, T/C (compound 3.16 µM) 55.2% and 38.8% and 51.6% | viability, T/C (compound 10 µM) 20.5% and 11.7% and 18.7%

O=C(c1cc(Cc2n[nH]c(=O)c3ccccc23)ccc1F)N1CCN(C(=O)C2CC2)CC1 + CN(C)c1ccc(Nc2c3ccc(NC(=O)CCN4CCCC4)cc3nc3cc(NC(=O)CCN4CCCC4)ccc23)cc1
active: viability, T/C (second compound 3.16 µM, first compound 0.0316 µM) 1.55% | viability, T/C (second compound 3.16 µM, first compound 0.1 µM) 1.44% | viability, T/C (second compound 3.16 µM, first compound 0.316 µM) 1.96% | viability, T/C (second compound 3.16 µM, first compound 1 µM) 1.41% | viability, T/C (second compound 3.16 µM, first compound 3.16 µM) 1.97% | viability, T/C (second compound 3.16 µM, first compound 10 µM) 1.2% | viability, T/C (second compound 10 µM, first compound 0.0316 µM) 0.28% | viability, T/C (second compound 10 µM, first compound 0.1 µM) 0.36% | viability, T/C (second compound 10 µM, first compound 0.316 µM) 0.35% | viability, T/C (second compound 10 µM, first compound 1 µM) 0.57% | viability, T/C (second compound 10 µM, first compound 3.16 µM) 0.69% | viability, T/C (second compound 10 µM, first compound 10 µM) 0.32%
< 5.00: pIC50 (curve of first compound, second compound 0.0316 µM) | pIC50 (curve of first compound, second compound 0.1 µM) | pIC50 (curve of first compound, second compound 0.316 µM)
inactive: viability, T/C (second compound 0.0316 µM, first compound 0.0316 µM) 98.5% | viability, T/C (second compound 0.0316 µM, first compound 0.1 µM) 98.5% | viability, T/C (second compound 0.0316 µM, first compound 0.316 µM) 107% | viability, T/C (second compound 0.0316 µM, first compound 1 µM) 96.3% | viability, T/C (second compound 0.0316 µM, first compound 3.16 µM) 90.7% | viability, T/C (second compound 0.0316 µM, first compound 10 µM) 94.2% | viability, T/C (second compound 0.1 µM, first compound 0.0316 µM) 107% | viability, T/C (second compound 0.1 µM, first compound 0.1 µM) 95.4% | viability, T/C (second compound 0.1 µM, first compound 0.316 µM) 91.1% | viability, T/C (second compound 0.1 µM, first compound 1 µM) 109% | viability, T/C (second compound 0.1 µM, first compound 3.16 µM) 91.7% | viability, T/C (second compound 0.1 µM, first compound 10 µM) 86.3% | viability, T/C (second compound 0.316 µM, first compound 0.0316 µM) 86.5% | viability, T/C (second compound 0.316 µM, first compound 0.1 µM) 94.1% | viability, T/C (second compound 0.316 µM, first compound 0.316 µM) 80.3% | viability, T/C (second compound 0.316 µM, first compound 1 µM) 78.5% | viability, T/C (second compound 0.316 µM, first compound 3.16 µM) 82% | viability, T/C (second compound 0.316 µM, first compound 10 µM) 60.8% | viability, T/C (second compound 1 µM, first compound 0.0316 µM) 31.7% | viability, T/C (second compound 1 µM, first compound 0.1 µM) 19.5% | viability, T/C (second compound 1 µM, first compound 0.316 µM) 25.3% | viability, T/C (second compound 1 µM, first compound 1 µM) 18.4% | viability, T/C (second compound 1 µM, first compound 3.16 µM) 20.2% | viability, T/C (second compound 1 µM, first compound 10 µM) 17.3%
> 7.50: pIC50 (curve of first compound, second compound 1 µM) | pIC50 (curve of first compound, second compound 3.16 µM) | pIC50 (curve of first compound, second compound 10 µM)

C#Cc1c(F)ccc2cc(O)cc(-c3ncc4c(N5CC6CCC(C5)N6)nc(OCC56CCCN5CC(F)C6)nc4c3F)c12 (stereo not drawn)
6.32 and 6.26: pIC50 (curve of compound)
24.5% and 6.82% and 10.6%: viability, T/C (compound 10 µM)
inactive: viability, T/C (compound 0.0316 µM) 91.1% and 86.6% and 83.5% | viability, T/C (compound 0.1 µM) 72.5% and 68.7% and 74.1% | viability, T/C (compound 0.316 µM) 55.5% and 61.2% and 55.2% | viability, T/C (compound 1 µM) 41.4% and 38% and 36.8% | viability, T/C (compound 3.16 µM) 29.1% and 29.3% and 26.5%
